Experimental data reported in patent US20250073217A1 (priority 2022, published 2025).
Where two headings read alike, the source gives them in different places.

Assays:
MDR1-MDCK cells = assay: MDR1-MDCK Permeability and Identification of P-gp Substrate (Bi-directional); type: in vitro ADME, canine; conditions: for efflux ratio: minus inhibitor (absence of cyclosporin A)
Procedure: MDR1-MDCK Permeability and Identification of P-gp Substrate (Bi-directional): Madin-Darby canine kidney (MDCK) cells are an epithelial cell line of canine kidney origin. These cells can be stably transfected to express active P-glycoprotein (MDR1-MDCK) and are ideal for studying drug efflux. Test compound was added to either the apical or basolateral side of a confluent monolayer of MDR1-MDCK cells and permeability was measured by monitoring the appearance of the test compound on the opposite side of the monolayer using LC-MS/MS. The efflux ratio (ER) was calculated from the ratio of B-A and A-B permeabilities. Experiments were performed in the absence and presence of a P-glycoprotein (P-gp) inhibitor (cyclosporin A (10 μM)) to determine whether the compound was subject to P-gp mediated efflux.
Experimental Procedure: MDR1-MDCK cells obtained from the NIH (Rockville, MD, USA) were used between passage numbers 6-30. Cells were seeded onto Millipore Multiscreen Transwell plates at 3.4×10^5 cells/cm^2. The cells were cultured in DMEM and media was changed on day 3. On day 4 the permeability study was performed. Cell culture and assay incubations were carried out at 37° C. in an atmosphere of 5% CO2 with a relative humidity of 95%. […]
The dosing solutions were prepared by diluting test compound with assay buffer to give a final test compound concentration of 10 μM (final DMSO concentration of 1% v/v). […] Test compound permeability was measured on two occasions, in the absence and in the presence of a P-gp inhibitor on both sides of the monolayer. […]
For assessment of A-B permeability. […] Test compound permeability was assessed in duplicate. […] Test and control compounds were quantified by LC-MS/MS cassette analysis using an 8-point calibration with appropriate dilution of the samples. […] The starting concentration (C0) was determined from the dosing solution and the experimental recovery calculated from C0 and both apical and basolateral compartment concentrations. […]

κ (KOP) = κ (KOP) (Rattus norvegicus, UniProt P34975); type: binding
μ (MOP) (h) [1] = target: T1, μ (MOP) (h) (Homo sapiens, UniProt P35372); type: cell-based
α2B(h) = target: T2, α2B(h) (Homo sapiens, UniProt P18089); type: binding
T2 sequence (P18089 1-450): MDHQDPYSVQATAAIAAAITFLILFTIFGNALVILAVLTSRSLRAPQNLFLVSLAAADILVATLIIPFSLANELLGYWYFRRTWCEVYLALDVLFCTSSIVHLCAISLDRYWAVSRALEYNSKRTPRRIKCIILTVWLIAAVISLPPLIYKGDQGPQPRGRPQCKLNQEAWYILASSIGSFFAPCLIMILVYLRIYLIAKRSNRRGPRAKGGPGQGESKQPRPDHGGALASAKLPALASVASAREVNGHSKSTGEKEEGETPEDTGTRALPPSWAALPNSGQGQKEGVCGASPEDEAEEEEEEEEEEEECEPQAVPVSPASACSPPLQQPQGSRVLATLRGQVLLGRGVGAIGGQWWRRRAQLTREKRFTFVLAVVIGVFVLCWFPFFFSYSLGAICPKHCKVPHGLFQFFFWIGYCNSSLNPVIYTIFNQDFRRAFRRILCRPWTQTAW

δ2 (DOP) (h) = δ2 (DOP) (h) (Homo sapiens, UniProt P41143); type: binding
μ (MOP) (h) [2] = target: T1, μ (MOP) (h); type: binding
[3] = Brain Tissue Binding, equilibrium dialysis, mouse; conditions: fraction unbound could not be determined
CYP2C9 = CYP2C9 (Homo sapiens, UniProt P11712); assay: CYP2C9 Inhibition, human liver microsomes, tolbutamide; conditions: 0.1 μM-25 μM
CYP3A4 [4] = target: T3, CYP3A4 (Homo sapiens, UniProt P08684); conditions: 0.1 μM-25 μM, human liver microsomes, substrate testosterone
[5] = Brain Tissue Binding, equilibrium dialysis, rat; conditions: brain homogenate
hERG potassium channel = hERG potassium channel (Homo sapiens, UniProt Q12809); assay: hERG Channel Inhibition (IC50 Determination), IonWorks automated patch clamp, CHO cells
CYP3A4 [6] = target: T3, CYP3A4; conditions: 0.1 μM-25 μM, human liver microsomes, substrate midazolam
CYP2B6 [7] = conditions: human hepatocytes, 72 hr, at 100 μM
CYP2C8 = CYP2C8 (Homo sapiens, UniProt P10632); assay: CYP2C8 Inhibition, human liver microsomes, paclitaxel; conditions: 0.1 μM-25 μM
CD-1 mice [8] = assay: Mice conditioned place preference (CPP) chamber test; type: in vivo; conditions: Compound 1 10 mg/kg IP, 10 minutes later Morphine 10 mg/kg SC, versus Morphine alone; FIG. 1
CYP1A2 [9] = target: CYP1A2 (Homo sapiens, UniProt P05177); conditions: 0.1 μM-25 μM, human liver microsomes
CYP3A4 [10] = conditions: human hepatocytes, 72 hr, 0.4-100 μM, any concentration tested
[11] = Bioavailability and Stability; type: in vitro ADME
From the text: Bioavailability and Stability: Compounds of the invention were studied in detail, using several parameters to evaluate bioavailability and stability.

CYP2D6 = target: T4, CYP2D6 (Homo sapiens, UniProt P10635); assay: Time Dependent Inhibition of CYP2D6 (Dextromethorphan; IC50 Shift); type: in vitro ADME; conditions: for CYP2D6 inhibition: at 25 μM
T4 construct: from tissue
Procedure: The probe substrate dextromethorphan (5 μM) and NADPH (1 mM) were then added (final DMSO concentration 0.3%) and the samples incubated for 5 min at 37° C. The selective time dependent CYP2D6 inhibitor, paroxetine, was screened alongside the test compounds as a positive control. The reactions were terminated by the addition of an aliquot of the incubation into methanol. The samples were centrifuged at 2500 rpm for 30 min at 4° C., and aliquots of the supernatant are diluted with formic acid in deionised water (final concentration 0.1%) containing internal standard prior to analysis of dextrorphan by LC-MS/MS.

animal models = assay: Toxicity in animal models; type: in vivo; conditions: many animal models, even at high concentrations
From the text: Toxicity: The Compound 1 was studied for its toxicity in many animal models.

Caco-2 cells = assay: Caco-2 Permeability (A-B or Bi-directional)
[12] = test system: L-DOPA induced dyskinesias; assay: L-DOPA induced dyskinesias, Rodent in vivo model
plasma proteins = assay: Binding to plasma proteins; type: in vitro ADME
CD-1 mice [13] = assay: Mouse Tail Flick Test; type: in vivo; conditions: compound 1 10 mg/kg IP, 10 minutes later Morphine 10 mg/kg SC, versus Morphine alone; FIGS. 2A-2C
[14] = test system: L-DOPA induced dyskinesias; assay: L-DOPA induced dyskinesias, Primate in vivo model
CYP2B6 [15] = target: CYP2B6 (Homo sapiens, UniProt P20813); conditions: 0.1 μM-25 μM, human liver microsomes
CYP1A2 [16] = conditions: human hepatocytes, 72 hr, 0.4-100 μM, any concentration tested

Sequence of κ (KOP) (P34975 whole entry): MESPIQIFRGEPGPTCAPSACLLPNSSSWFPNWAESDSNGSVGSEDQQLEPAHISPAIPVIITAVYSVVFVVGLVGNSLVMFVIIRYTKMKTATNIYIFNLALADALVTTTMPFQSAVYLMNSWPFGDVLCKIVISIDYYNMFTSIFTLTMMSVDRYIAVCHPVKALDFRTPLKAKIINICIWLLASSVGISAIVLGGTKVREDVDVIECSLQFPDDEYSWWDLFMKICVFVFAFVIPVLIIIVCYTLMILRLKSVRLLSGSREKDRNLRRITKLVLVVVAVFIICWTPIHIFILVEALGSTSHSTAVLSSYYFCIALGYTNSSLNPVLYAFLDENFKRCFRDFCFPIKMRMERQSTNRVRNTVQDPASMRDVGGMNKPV
Sequence of δ2 (DOP) (h) (P41143 whole entry): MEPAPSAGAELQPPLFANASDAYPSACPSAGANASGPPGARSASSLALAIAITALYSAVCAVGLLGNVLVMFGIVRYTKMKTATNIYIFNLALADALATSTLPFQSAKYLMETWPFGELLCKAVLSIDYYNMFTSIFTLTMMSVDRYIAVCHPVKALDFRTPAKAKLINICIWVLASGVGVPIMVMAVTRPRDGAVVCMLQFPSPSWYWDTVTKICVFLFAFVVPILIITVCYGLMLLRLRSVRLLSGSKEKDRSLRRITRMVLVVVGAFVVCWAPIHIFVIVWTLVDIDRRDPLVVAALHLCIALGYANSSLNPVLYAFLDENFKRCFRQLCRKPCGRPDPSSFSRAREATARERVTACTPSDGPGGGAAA
T4 sequence (P10635 whole entry): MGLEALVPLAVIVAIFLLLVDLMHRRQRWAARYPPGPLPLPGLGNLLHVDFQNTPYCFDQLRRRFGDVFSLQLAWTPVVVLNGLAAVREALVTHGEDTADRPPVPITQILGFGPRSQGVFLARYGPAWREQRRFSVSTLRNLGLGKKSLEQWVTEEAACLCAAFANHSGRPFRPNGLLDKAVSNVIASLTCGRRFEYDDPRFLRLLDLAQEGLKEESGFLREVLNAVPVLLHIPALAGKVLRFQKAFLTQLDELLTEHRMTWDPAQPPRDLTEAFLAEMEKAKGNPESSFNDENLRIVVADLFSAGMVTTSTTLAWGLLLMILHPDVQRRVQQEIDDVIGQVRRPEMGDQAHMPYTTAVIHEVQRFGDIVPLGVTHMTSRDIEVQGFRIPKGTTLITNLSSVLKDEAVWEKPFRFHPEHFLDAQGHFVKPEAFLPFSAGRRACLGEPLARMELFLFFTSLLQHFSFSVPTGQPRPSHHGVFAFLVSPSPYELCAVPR
T1 sequence (P35372 whole entry): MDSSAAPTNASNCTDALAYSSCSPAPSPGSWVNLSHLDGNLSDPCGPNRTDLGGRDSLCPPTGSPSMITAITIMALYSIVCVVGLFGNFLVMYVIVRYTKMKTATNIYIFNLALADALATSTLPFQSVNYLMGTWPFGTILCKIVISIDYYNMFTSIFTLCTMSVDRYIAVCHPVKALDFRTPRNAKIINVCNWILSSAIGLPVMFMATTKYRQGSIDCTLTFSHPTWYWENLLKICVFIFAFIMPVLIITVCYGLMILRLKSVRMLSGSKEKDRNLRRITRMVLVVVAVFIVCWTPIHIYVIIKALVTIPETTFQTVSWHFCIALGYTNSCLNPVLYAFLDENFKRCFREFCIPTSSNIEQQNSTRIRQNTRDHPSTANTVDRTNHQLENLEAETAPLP
T3 sequence (P08684 whole entry): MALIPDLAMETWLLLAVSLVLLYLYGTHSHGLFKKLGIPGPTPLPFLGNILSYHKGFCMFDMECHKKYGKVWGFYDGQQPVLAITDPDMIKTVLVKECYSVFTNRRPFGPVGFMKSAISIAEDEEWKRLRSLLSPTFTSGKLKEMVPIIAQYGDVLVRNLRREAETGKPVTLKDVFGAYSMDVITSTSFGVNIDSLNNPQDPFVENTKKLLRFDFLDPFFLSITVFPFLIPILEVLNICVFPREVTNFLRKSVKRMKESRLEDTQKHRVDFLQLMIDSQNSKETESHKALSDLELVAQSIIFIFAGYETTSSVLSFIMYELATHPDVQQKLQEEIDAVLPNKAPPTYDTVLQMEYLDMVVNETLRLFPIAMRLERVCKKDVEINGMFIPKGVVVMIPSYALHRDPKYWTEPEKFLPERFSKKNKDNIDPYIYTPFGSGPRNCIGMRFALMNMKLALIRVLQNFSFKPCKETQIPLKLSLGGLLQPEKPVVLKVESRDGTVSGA
Sequence of CYP2C8 (P10632 whole entry): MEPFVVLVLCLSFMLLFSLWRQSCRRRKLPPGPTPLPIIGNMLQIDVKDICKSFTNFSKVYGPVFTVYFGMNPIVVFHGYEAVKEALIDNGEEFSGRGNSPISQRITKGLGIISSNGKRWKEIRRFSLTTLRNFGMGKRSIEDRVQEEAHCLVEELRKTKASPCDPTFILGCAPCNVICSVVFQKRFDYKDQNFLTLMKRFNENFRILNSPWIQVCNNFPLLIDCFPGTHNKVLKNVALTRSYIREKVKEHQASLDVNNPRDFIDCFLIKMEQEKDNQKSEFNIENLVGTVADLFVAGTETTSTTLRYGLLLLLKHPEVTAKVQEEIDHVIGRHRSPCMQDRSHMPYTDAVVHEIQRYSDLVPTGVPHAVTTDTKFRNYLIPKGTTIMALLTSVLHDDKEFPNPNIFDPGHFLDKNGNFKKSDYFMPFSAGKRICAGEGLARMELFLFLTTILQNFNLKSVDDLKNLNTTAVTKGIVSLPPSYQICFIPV
Sequence of hERG potassium channel (Q12809 whole entry): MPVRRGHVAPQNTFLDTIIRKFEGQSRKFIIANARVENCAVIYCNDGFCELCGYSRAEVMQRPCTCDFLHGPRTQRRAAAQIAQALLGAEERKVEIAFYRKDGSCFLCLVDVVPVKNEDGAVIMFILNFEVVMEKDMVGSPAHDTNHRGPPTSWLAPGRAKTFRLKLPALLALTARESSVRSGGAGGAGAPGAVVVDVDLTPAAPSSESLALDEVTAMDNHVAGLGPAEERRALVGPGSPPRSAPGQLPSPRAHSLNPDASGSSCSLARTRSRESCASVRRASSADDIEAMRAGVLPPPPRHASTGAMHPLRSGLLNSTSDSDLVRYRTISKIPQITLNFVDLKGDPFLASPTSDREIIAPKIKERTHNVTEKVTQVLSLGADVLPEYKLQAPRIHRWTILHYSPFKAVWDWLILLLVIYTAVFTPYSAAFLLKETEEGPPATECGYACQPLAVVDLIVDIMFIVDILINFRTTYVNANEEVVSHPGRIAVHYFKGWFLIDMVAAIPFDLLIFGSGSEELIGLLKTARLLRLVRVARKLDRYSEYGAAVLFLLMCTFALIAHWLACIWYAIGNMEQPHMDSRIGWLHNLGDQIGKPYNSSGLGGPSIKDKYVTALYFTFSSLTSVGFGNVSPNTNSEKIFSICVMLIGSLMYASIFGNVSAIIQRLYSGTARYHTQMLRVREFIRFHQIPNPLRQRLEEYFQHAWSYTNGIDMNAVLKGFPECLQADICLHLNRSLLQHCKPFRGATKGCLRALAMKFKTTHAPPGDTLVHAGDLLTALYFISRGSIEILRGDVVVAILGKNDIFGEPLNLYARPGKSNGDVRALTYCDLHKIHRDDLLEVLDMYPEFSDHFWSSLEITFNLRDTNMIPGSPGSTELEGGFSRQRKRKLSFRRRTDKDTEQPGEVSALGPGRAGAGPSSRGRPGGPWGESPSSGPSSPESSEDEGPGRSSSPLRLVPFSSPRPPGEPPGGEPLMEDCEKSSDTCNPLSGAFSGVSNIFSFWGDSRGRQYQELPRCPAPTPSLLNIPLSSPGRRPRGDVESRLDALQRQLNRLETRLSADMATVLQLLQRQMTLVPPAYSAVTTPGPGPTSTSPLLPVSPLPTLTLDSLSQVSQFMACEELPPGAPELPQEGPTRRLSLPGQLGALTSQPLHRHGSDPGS
Sequence of CYP2B6 (Homo sapiens, UniProt P20813) (P20813 whole entry): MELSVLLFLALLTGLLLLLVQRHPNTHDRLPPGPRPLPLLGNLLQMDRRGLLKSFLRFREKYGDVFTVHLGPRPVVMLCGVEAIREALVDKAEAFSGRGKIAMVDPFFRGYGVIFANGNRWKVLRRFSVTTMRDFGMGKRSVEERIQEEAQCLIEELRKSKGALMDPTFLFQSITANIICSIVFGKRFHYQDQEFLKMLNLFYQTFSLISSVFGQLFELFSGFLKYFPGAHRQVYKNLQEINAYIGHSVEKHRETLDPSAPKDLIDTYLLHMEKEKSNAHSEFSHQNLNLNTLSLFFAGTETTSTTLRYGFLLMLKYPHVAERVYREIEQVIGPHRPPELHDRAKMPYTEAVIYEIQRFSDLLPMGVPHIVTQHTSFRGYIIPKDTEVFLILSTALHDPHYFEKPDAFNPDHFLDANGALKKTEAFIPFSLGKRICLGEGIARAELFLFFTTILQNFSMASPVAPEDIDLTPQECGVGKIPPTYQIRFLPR
Sequence of CYP2C9 (P11712 whole entry): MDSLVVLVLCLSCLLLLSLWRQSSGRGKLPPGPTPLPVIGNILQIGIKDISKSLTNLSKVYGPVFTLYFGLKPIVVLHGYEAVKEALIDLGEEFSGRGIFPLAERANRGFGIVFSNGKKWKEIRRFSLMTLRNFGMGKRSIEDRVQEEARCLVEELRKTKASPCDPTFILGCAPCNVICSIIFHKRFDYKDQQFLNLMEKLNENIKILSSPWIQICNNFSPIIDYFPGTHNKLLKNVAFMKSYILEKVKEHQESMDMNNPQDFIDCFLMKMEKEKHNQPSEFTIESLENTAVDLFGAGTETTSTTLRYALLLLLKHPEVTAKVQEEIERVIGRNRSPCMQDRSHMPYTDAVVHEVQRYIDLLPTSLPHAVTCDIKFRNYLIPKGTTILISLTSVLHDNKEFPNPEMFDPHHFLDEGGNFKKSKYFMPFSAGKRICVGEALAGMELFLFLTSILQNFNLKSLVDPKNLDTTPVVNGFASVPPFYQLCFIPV

COc1cc2nc(N3CCN(C(=O)c4ccco4)CC3)nc(N)c2cc1OC [prazosin, reference compound]
efflux ratio (MDR1-MDCK cells): showing efflux

CCC(=O)NC1CCN(CCc2cccs2)CC1 [N-(1-(2-(thiophen-2-yl)ethyl)piperidin-4-yl)propionamide]
nH (κ (KOP)): 0.6
nH (μ (MOP) (h) [1]): 0.6
nH (α2B(h)): 1.2
nH (δ2 (DOP) (h)): 0.9

O=C(NC1CCN(CCc2ccccc2)CC1)c1ccoc1 [N-(1-phenethylpiperidin-4-yl)furan-3-carboxamide]
nH (κ (KOP)): 1.1
nH (μ (MOP) (h) [2]): 0.8
nH (α2B(h)): 0.7
nH (δ2 (DOP) (h)): 1

O=C(CCCCCCCBr)NC1CCN(CCc2ccccc2)CC1 [8-bromo-N-(1-phenethylpiperidin-4-yl)octanamide]
nH (κ (KOP)): 0.5
nH (μ (MOP) (h) [1]): 0.4
nH (α2B(h)): 0.8

CCC(=O)NC1CCN(CCC(=O)OC)CC1 [Methyl 3-(4-propionamidopiperidin-1-yl) propanoate]
nH (κ (KOP)): 0.8
nH (μ (MOP) (h) [2]): 0.5
nH (α2B(h)): 1

O=C(NC1CCN(CCc2ccccc2)CC1)c1ccco1 [N-(1-phenethylpiperidin-4-yl)furan-2-carboxamide]
nH (κ (KOP)): 1.1
nH (μ (MOP) (h) [2]): 0.8
nH (α2B(h)): 0.7
nH (δ2 (DOP) (h)): 1

O=C(NC1CCN(CCc2ccccc2)CC1)c1ccccc1 [N-(1-phenethylpiperidin-4-yl)benzamide]
nH (κ (KOP)): 0.6
nH (μ (MOP) (h) [2]): 0.9
nH (α2B(h)): 1.3
nH (δ2 (DOP) (h)): 0.7

CCC(=O)NC1CCN(CCc2ccccc2)CC1 [Compound 1, N-(1-phenethylpiperidin-4-yl)propionamide]
binding in mouse [3]: no binding at all could be detected
CYP2C9 inhibition (CYP2C9): No significant inhibition
CYP3A4 inhibition (testosterone) (CYP3A4 [4]): No significant inhibition
fraction unbound at 2 hr, 5 μM [5]: 0.249
IC50 (hERG potassium channel): > 25 µM
CYP3A4 inhibition (midazolam) (CYP3A4 [6]): No significant inhibition
CYP2B6 mRNA expression (CYP2B6 [7]): slight, yet statistically significant decrease
CYP2C8 inhibition (CYP2C8): No significant inhibition
time in chamber associated with morphine administration (CPP) (CD-1 mice [8]): significantly less time
CYP1A2 inhibition (CYP1A2 [9]): No significant inhibition
CYP3A4 mRNA expression (CYP3A4 [10]): didn't cause a statistically significant change
bioavailability [11]: highly bioavailable
IC50 (CYP2D6; 0 minute incubation): > 25 µM
time-dependent CYP2D6 inhibition (CYP2D6; IC50 shift, 30 min pre-incubation ± NADPH): no evidence of time-dependent CYP2D6 inhibition
CYP2D6 inhibition (CYP2D6; 0 minute incubation): approximately 40%
CYP2D6 inhibition (CYP2D6; 30 minute plus NADPH incubation): approximately 40%
toxicity (animal models): virtually no toxicity
permeability in the Caco-2 assay (Caco-2 cells; 10 μM, pH gradient 6.8/7.4, 120 min): highly permeable in both directions
efflux ratio (Caco-2 cells; pH gradient (pH 6.8/7.4)): 2.70
inhibition of L-DOPA induced dyskinesias ([12]; Rodent in vivo model): significant inhibition
effectiveness versus amantadine against L-dopa-induced dyskinesia ([12]; comparison with amantadine, model not specified (Rodent and Primate models named)): significantly more effective than amantadine
binding to plasma proteins (plasma proteins): weak, or no noticeable binding
analgesic property (tail flick, 52° C. water) (CD-1 mice [13]): almost identical analgesic property compared to morphine alone
inhibition of L-DOPA induced dyskinesias [14]: significant inhibition
CYP2B6 inhibition (CYP2B6 [15]): No significant inhibition
CYP1A2 mRNA expression (CYP1A2 [16]): didn't cause a statistically significant change
permeability in the MDCK assay (MDR1-MDCK cells; 10 μM, pH 7.4, 60 min): highly permeable
efflux ratio (MDR1-MDCK cells): 1.48
